# Like-named read-outs stand apart in the source and are kept apart here.
# Legend:
# Format in all cases: in vivo
# [1] = system: melon aphids (Aphis gossypii Glover); assay: Mite/insect screen, MA; settings: Aphis gossypii, percent mortality, read-out: MA RESULTS %
# Method in brief: (§1)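 Activity is expressed as percent mortality at the indicated spray concentrations. Plants are sprayed to runoff on upper and lower leaf surfaces with aqueous dilutions of an acetone/alcohol emulsifiable formulation, then dried for one hour.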
# [2] = system: Twospotted spider mites (Tetranychus urticae Koch); assay: Mite/insect screen, SM; settings: Tetranychus urticae, percent mortality, read-out: SM RESULTS %
# Method in brief: as §1
# [3] = system: southern armyworm (Spodopetra eridania Cramer); assay: Mite/insect screen, SAW; settings: Spodoptera eridania, percent mortality, read-out: SAW RESULTS %
# Method in brief: as §1
# [4] = system: Erysiphe graminis tritici (powdery mildew); assay: Test 1 greenhouse foliar spray screen, powdery mildew on wheat; settings: for POWD MDEW: disease control rating, foliar spray on wheat, 400 ppm (+++ at 100 ppm); for pest or weed control at 400 ppm: Blumeria graminis, foliar, Test 1, foliar spray on wheat, disease control rating at 400 ppm / 100 ppm, read-out: POWD MDEW
# [5] = system: Venturia inaequalis (apple scab); assay: Test 1 greenhouse foliar spray screen, apple scab on apple seedling; settings: disease control rating, foliar spray on apple seedling, 400 ppm (+++ at 100 ppm)
# [6] = system: Puccinia recondita tritici (leaf rust); assay: Test 1 greenhouse foliar spray screen, leaf rust on wheat; settings: for LEAF RUST: disease control rating, foliar spray on wheat, 400 ppm (+++ at 100 ppm); for pest or weed control at 400 ppm: Puccinia recondita, foliar, Test 1, foliar spray on wheat, disease control rating at 400 ppm / 100 ppm
# [7] = system: Pseudoperonospora cubensis (downy mildew); assay: Test 1 greenhouse foliar spray screen, downy mildew on squash; settings: for DOWN MDEW: disease control rating, foliar spray on squash, 400 ppm (+++ at 100 ppm); for pest or weed control at 400 ppm: Pseudoperonospora cubensis, foliar, Test 1, foliar spray on squash, disease control rating at 400 ppm / 100 ppm, read-out: DOWN MDEW
# [8] = system: Septoria tritici (leaf blotch); assay: Test 1 greenhouse foliar spray screen, leaf blotch on wheat; settings: disease control rating, foliar spray on wheat, 400 ppm (+++ at 100 ppm)
# [9] = system: Pyricularia oryzae (rice blast); assay: whole plant or invertebrate; settings: for RICE BLAST: disease control rating, foliar spray on rice, 400 ppm (+++ at 100 ppm); for pest or weed control at 400 ppm: Pyricularia oryzae, foliar, read-out: RICE BLAST, Test 1, foliar spray on rice, disease control rating at 400 ppm / 100 ppm
# [10] = system: Botrytis cinerea (gray mold); assay: Test 1 greenhouse foliar spray screen, gray mold on grape berries; settings: for GRAY MOLD: disease control rating, spray on grape berries, 400 ppm (+++ at 100 ppm); for pest or weed control at 400 ppm: Botrytis cinerea, foliar, Test 1, spray on grape berries, disease control rating at 400 ppm / 100 ppm
# corn rootworm = assay: Mite/insect screen, CRW; settings: percent mortality, read-out: CRW RESULTS %
# Method in brief: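 Each compound, taken up in an emulsifier-containing acetone/alcohol mixture and diluted in water to the stated concentrations, was assessed for percent kill following standard exposure times.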
# [11] = foliar, rate 200 ppm, foliar spray on squash
# [12] = foliar, rate 400 ppm, foliar spray on squash
Compound,"mortality at 200 ppm ([1]; SAW, SM & MA RATE 200 PPM) [%]","mortality at 200 ppm ([2]; SAW, SM & MA RATE 200 PPM) [%]","mortality at 200 ppm ([3]; SAW, SM & MA RATE 200 PPM) [%]",POWD MDEW [4],APPL SCAB [5],LEAF RUST [6],DOWN MDEW [7],LEAF BLOT [8],RICE BLAST [9],GRAY MOLD [10],mortality at 12 ppm (corn rootworm; CRW RATE 12.00 PPM) [%],"mortality at 400 ppm [1, 12] [%]","mortality at 400 ppm [2, 12] [%]","mortality at 400 ppm [3, 12] [%]",pest or weed control at 400 ppm [4] [%],pest or weed control at 400 ppm [6] [%],pest or weed control at 400 ppm [7] [%],pest or weed control at 400 ppm [9] [%],pest or weed control at 400 ppm [10] [%],mortality at 24 ppm (corn rootworm; CRW rate 24.00 ppm) [%],other results
"Cc1ccc2nccc(NCCc3ccccc3)c2c1 [Example 30, 6-methyl-N-(2-phenylethyl)-4-quinolinamine]",0,0,0,- (0-19% control at 400 ppm),- (0-19% control at 400 ppm),+ (20-89% control at 400 ppm),+++ (90-100% control at 100 ppm),- (0-19% control at 400 ppm),+ (20-89% control at 400 ppm),- (0-19% control at 400 ppm),0,,,,,,,,,,
"Cc1ccc(CCNc2ccnc3ccccc23)cc1 [Example 19, N-[2-(4-methylphenyl)ethyl]-4-quinolinamine]",0,0,0,+ (20-89% control at 400 ppm),- (0-19% control at 400 ppm),++ (90-100% control at 400 ppm),+++ (90-100% control at 100 ppm),- (0-19% control at 400 ppm),++ (90-100% control at 400 ppm),- (0-19% control at 400 ppm),0,,,,,,,,,,
"CCc1ccc2nccc(NCCc3ccccc3)c2c1 [Example 3, 6-ethyl-N-(2-phenylethyl)-4-quinolinamine]",0,0,0,- (0-19% control at 400 ppm),- (0-19% control at 400 ppm),+ (20-89% control at 400 ppm),+++ (90-100% control at 100 ppm),- (0-19% control at 400 ppm),++ (90-100% control at 400 ppm),- (0-19% control at 400 ppm),0,,,,,,,,,,
"COc1ccc(CCNc2ccnc3ccccc23)cc1 [Example 22, N-[2-(4-methoxyphenyl)-ethyl]-4-quinolinamine]",0,0,0,+ (20-89% control at 400 ppm),- (0-19% control at 400 ppm),+ (20-89% control at 400 ppm),+++ (90-100% control at 100 ppm),- (0-19% control at 400 ppm),+ (20-89% control at 400 ppm),- (0-19% control at 400 ppm),0,,,,,,,,,,
"Fc1cccc2c(OCCc3ccc(Br)cc3)ccnc12 [Example 223, 4-[2-(4-bromophenyl)ethoxy]-8-fluoroquinoline]",,,,,,,,,,,,100,0,0,90 to 100,90 to 100,0 to 19,90 to 100,0 to 19,0,"mortality at 200 ppm [1, 11]: 80%; mortality at 200 ppm [2, 11]: 0%; mortality at 200 ppm [3, 11]: 0%; mortality at 12 ppm (corn rootworm; CRW rate 12.00 ppm): 80%"
"CC(=O)N(CCc1ccc(Cl)cc1)c1ccnc2ccc(F)cc12 [Example 121, N-[2-(4-chlorophenyl)ethyl]-N-(6-fluoro-4-quinolinyl)acetamide]",0,0,0,+ (20-89% control at 400 ppm),,++ (90-100% control at 400 ppm),+ (20-89% control at 400 ppm),,- (0-19% control at 400 ppm),- (0-19% control at 400 ppm),0,,,,,,,,,,"mortality at 400 ppm ([1]; SAW, SM & MA RATE 400 PPM): 0%; mortality at 400 ppm ([2]; SAW, SM & MA RATE 400 PPM): 0%; mortality at 400 ppm ([3]; SAW, SM & MA RATE 400 PPM): 0%; mortality at 24 ppm (corn rootworm; CRW RATE 24.00 PPM): 0%"
"Clc1cc(Cl)c2c(OCCc3ccc(-c4ccccc4)cc3)ccnc2c1 [Example 194, 5,7-dichloro-4-[2-(1,1'-biphenyl)-4-ylethoxy]quinoline]",,,,,,,,,,,,0,0,0,20 to 89,0 to 19,0 to 19,0 to 19,0 to 19,0,"mortality at 200 ppm [1, 11]: 0%; mortality at 200 ppm [2, 11]: 0%; mortality at 200 ppm [3, 11]: 0%; mortality at 12 ppm (corn rootworm; CRW rate 12.00 ppm): 0%"
"FC(F)(F)c1ccc2c(CCCc3ccccc3)ccnc2c1 [Example 254, 4-(3-phenylpropyl)-7-(trifluoromethyl)quinoline]",,,,,,,,,,,,0,0,0,90 to 100,0 to 19,0 to 19,90 to 100,0 to 19,0,
"Clc1ccc(CCOc2ccnc3c(Br)cccc23)cc1 [Example 215, 8-bromo-4-[2-(4-chlorophenyl)ethoxy]quinoline]",,,,,,,,,,,,100,100,0,0 to 19,20 to 89,90 to 100,20 to 89,0 to 19,0,
"CC(Cc1ccccc1)Oc1ccnc2c(F)cccc12 (stereo not drawn) [Example 214, 8-fluoro-4-[1-(phenylmethyl)ethoxy]quinoline]",,,,,,,,,,,,0,0,0,20 to 89,20 to 89,90 to 100,90 to 100,0 to 19,0,
"CC(C)(C)c1ccc(CCCOc2ccnc3c(F)cccc23)cc1 [Example 241, 8-fluoro-4-[3-[4-(t-butyl)phenyl]propoxy]quinoline]",,,,,,,,,,,,0,0,0,0 to 19,0 to 19,0 to 19,0 to 19,0 to 19,0,
"CC(C)(CNc1ccnc2c(Cl)cccc12)c1ccccc1 [Example 288, 8-chloro-N-(2-methyl-2-phenylpropyl)-4-quinolinamine]",,,,,,,,,,,,0,0,0,0 to 19,0 to 19,20 to 89,20 to 89,0 to 19,0,"mortality at 200 ppm [1, 11]: 0%; mortality at 200 ppm [2, 11]: 0%; mortality at 200 ppm [3, 11]: 0%; mortality at 12 ppm (corn rootworm; CRW rate 12.00 ppm): 0%"
"Fc1cccc2c(OCCc3ccccc3Cl)ccnc12 [Example 269, 4-[2-(2-chlorophenyl)ethoxy]-8-fluoroquinoline]",,,,,,,,,,,,0,0,0,90 to 100,90 to 100,90 to 100,90 to 100,0 to 19,40,"mortality at 200 ppm [1, 11]: 30%; mortality at 200 ppm [3, 11]: 0%; mortality at 12 ppm (corn rootworm; CRW rate 12.00 ppm): 0%"

# From EP0326331B1, “Substituted quinolines and cinnolines” (Dow AgroSciences LLC, priority 1988, dated 1989)
